Patent US20230391845A1, “GLP-1, GIP AND GLUCAGON RECEPTOR TRIPLE AGONISTS” (priority 2020, published 2023)
*1 amine or outer side, *2 acyl side, *3 side chain or, on linkers, in order; H or OH if unused. Where a SMILES comes first, the peptide text is derived from it. Side-chain parts run from the residue outwards. [ ]: non-standard residue; d: D form. The star is where a group is joined. C20 diacid = O=C(O)CCCCCCCCCCCCCCCCCCC(=O)*; γGlu = O=C(O)[C@H](CCC(=O)[*:2])N[*:1]; εLys = N[C@@H](CCCCN[*:1])C(=O)[*:2]; AEEA = NCCOCCOCC(=O)O; Aib = CC(C)(N)C(=O)O

Key:
[1] = Pharmacokinetic study in minipigs, i.v. administration; parameters: species or system Göttingen minipigs; details: female, Göttingen, minipig, in vivo, iv
Protocol: The purpose of this example is to determine the half-life in vivo of the triple agonists as described herein after i.v. administration to minipigs, i.e. the prolongation of their time in the body and thereby their time of action. This is done in a pharmacokinetic (PK) study, where the terminal half-life of the triple agonist in question is determined. By terminal half-life is generally meant the period of time it takes to halve a certain plasma concentration, measured after the initial distribution phase.
Female Göttingen minipigs were obtained from Ellegaard Göttingen Minipigs (Dalmose, Denmark) approximately 7-14 months of age and weighing from approximately 16-35 kg were used in the studies. The minipigs were housed individually and fed restrictedly once daily with SDS minipig diet (Special Diets Services, Essex, UK).
After at 3 weeks of acclimatisation two permanent central venous catheters were implanted in vena cava caudalis in each animal. The animals were allowed 1 week recovery after the surgery, and were then used for repeated pharmacokinetic studies with a suitable wash-out period between successive dosings.
The animals were fasted for approximately 18 hours before dosing and from 0 to 4 hours after dosing, but had adlibitum access to water during the whole period.
Intravenous injections (the volume corresponding to usually 1.5-2 nmol/kg, for example 0.1 mL/kg) of the triple agonists were given through one catheter, and blood was sampled at predefined time points for up to 14 days post dosing (preferably through the other catheter). Blood samples (for example 0.8 mL) were collected in 8 mM EDTA buffer and then centrifuged at 4° C. and 1942 g for 10 minutes.
Plasma was pipetted into Micronic tubes on dry ice and kept at −20° C. until analysed for plasma concentration of the triple agonists using ELISA, or a similar antibody-based assay, or LCMS. Individual plasma concentration-time profiles were analysed by a non-compartmental model in Phoenix WinNonLin ver. 6.4. (Pharsight Inc., Mountain View, CA, USA), and the resulting terminal half-lives (harmonic mean) determined.

human GLP-1 receptor = target: T1, human GLP-1 receptor (Homo sapiens, UniProt P43220); assay: In vitro functional potency (CRE luciferase; whole cells), human GLP-1R; format: cell-based; details: BHK CRE luc2P hGLP-1R whole cells; Table 2; read-out: hGLP-1R CRE Luc EC50
T1 construct: expressed in transfected cells; host or cells: BHK cells (parent line BHKTS13) containing CRE luciferase
T1 sequence (P43220 24-463): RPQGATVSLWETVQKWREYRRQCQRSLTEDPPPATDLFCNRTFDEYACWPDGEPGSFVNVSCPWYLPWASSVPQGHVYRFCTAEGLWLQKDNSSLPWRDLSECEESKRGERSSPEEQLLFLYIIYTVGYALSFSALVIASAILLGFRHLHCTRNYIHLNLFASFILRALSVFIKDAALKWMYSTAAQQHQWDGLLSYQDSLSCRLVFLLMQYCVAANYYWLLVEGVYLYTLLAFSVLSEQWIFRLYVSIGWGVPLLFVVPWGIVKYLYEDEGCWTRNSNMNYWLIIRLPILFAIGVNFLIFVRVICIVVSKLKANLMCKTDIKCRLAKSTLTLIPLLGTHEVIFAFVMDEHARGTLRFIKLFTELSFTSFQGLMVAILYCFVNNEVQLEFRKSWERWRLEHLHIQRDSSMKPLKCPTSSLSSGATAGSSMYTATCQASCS

SMILES | half-life [1] | EC50 (human GLP-1 receptor)
CC[C@H](C)[C@H](NC(=O)[C@H](CO)NC(=O)[C@H](Cc1ccc(O)cc1)NC(=O)[C@H](CC(=O)O)NC(=O)[C@H](CO)NC(=O)[C@@H](NC(=O)[C@H](Cc1ccccc1)NC(=O)[C@@H](NC(=O)CNC(=O)[C@H](CCC(N)=O)NC(=O)C(C)(C)NC(=O)[C@@H](N)Cc1ccc(O)cc1)[C@@H](C)O)[C@@H](C)O)C(=O)N[C@@H](Cc1ccc(O)cc1)C(=O)N[C@@H](CC(C)C)C(=O)N[C@@H](CC(=O)O)C(=O)N[C@@H](CCCCNC(=O)COCCOCCNC(=O)COCCOCCNC(=O)CC[C@H](NC(=O)CCCCCCCCCCCCCCCCCCC(=O)O)C(=O)O)C(=O)N[C@@H](CCC(N)=O)C(=O)N[C@@H](C)C(=O)N[C@@H](C)C(=O)NC(C)(C)C(=O)N[C@@H](CCC(=O)O)C(=O)N[C@@H](Cc1ccccc1)C(=O)N[C@H](C(=O)N[C@@H](CC(N)=O)C(=O)N[C@@H](Cc1c[nH]c2ccccc12)C(=O)N[C@@H](CC(C)C)C(=O)N[C@@H](CC(C)C)C(=O)N[C@@H](C)C(=O)NCC(=O)NCC(=O)N1CCC[C@H]1C(=O)N[C@@H](CO)C(=O)N[C@@H](CO)C(=O)NCC(=O)N[C@@H](C)C(=O)N1CCC[C@H]1C(=O)N1CCC[C@H]1C(=O)N1CCC[C@H]1C(=O)N[C@@H](CO)C(N)=O)C(C)C [Compound No. 5] (H-Y[Aib]QGTFTSDYSIYLDK([AEEA-AEEA-γGlu-C20 diacid])QAA[Aib]EFVNWLLAGGPSSGAPPPS-NH2; N-terminus assumed) | 85 h | –
CC[C@H](C)[C@H](NC(=O)[C@H](CO)NC(=O)[C@H](Cc1ccc(O)cc1)NC(=O)[C@H](CC(=O)O)NC(=O)[C@H](CO)NC(=O)[C@@H](NC(=O)[C@H](Cc1ccccc1)NC(=O)[C@@H](NC(=O)CNC(=O)[C@H](Cc1c[nH]cn1)NC(=O)C(C)(C)NC(=O)[C@@H](N)Cc1c[nH]cn1)[C@@H](C)O)[C@@H](C)O)C(=O)N[C@@H](CC(C)C)C(=O)N[C@@H](CC(C)C)C(=O)N[C@@H](CCC(=O)O)C(=O)N[C@@H](CCCCNC(=O)[C@@H](N)CCCCNC(=O)[C@@H](N)CCCCNC(=O)CC[C@H](NC(=O)CCCCCCCCCCCCCCCCCCC(=O)O)C(=O)O)C(=O)N[C@@H](CCC(N)=O)C(=O)N[C@@H](C)C(=O)N[C@@H](C)C(=O)N[C@@H](CCCNC(=N)N)C(=O)N[C@@H](CCC(=O)O)C(=O)N[C@@H](Cc1ccccc1)C(=O)N[C@H](C(=O)N[C@@H](CCC(N)=O)C(=O)N[C@@H](Cc1c[nH]c2ccccc12)C(=O)N[C@@H](CC(C)C)C(=O)N[C@@H](CC(C)C)C(=O)N[C@@H](CCC(=O)O)C(=O)NCC(=O)NCC(=O)N1CCC[C@H]1C(=O)N[C@@H](CO)C(=O)N[C@@H](CO)C(=O)NCC(=O)N[C@@H](C)C(=O)N1CCC[C@H]1C(=O)N1CCC[C@H]1C(=O)N1CCC[C@H]1C(=O)N[C@@H](CO)C(=O)O)C(C)C [Compound No. 55] (H-H[Aib]HGTFTSDYSILLEK([εLys-εLys-γGlu-C20 diacid])QAAREFVQWLLEGGPSSGAPPPS-OH; N-terminus assumed) | – | 2 pM
